Source: patent US9096602B2, “Substituted pyrrolo[2,3-B]pyrazines as ATR kinase inhibitors” (Vertex Pharmaceuticals Incorporated, priority 2011, dated 2015)
Like-named read-outs stand apart in the source and are kept apart here.

Target: T1, ATR kinase (full-length ATR) (Homo sapiens, UniProt Q13535)
T1 construct: Assays were carried out at 25° C. in the presence of 5 nM full-length ATR
Experiment: ATR Inhibition Assay (radioactive-phosphate incorporation)
Assay type: biochemical
Settings: Ki(app), 5 nM full-length ATR, 10 μM ATP, 800 μM target peptide, 25° C., read-out: ATR Inhibition Ki
Method in brief: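 Radiometric 33P filter assay with 5 nM full-length ATR in 50 mM Tris/HCl pH 7.5, 10 mM MgCl2, 1 mM DTT at 25 °C. Final 10 μM [γ-33P]ATP and 800 μM peptide; 10 min compound preincubation, ATP start, stopped at 24 h with phosphoric acid/ATP. Ki(app) from non-linear regression of background-corrected initial rates.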

[1] = given as numeric lower bound without unit

T1 sequence (Q13535 whole entry): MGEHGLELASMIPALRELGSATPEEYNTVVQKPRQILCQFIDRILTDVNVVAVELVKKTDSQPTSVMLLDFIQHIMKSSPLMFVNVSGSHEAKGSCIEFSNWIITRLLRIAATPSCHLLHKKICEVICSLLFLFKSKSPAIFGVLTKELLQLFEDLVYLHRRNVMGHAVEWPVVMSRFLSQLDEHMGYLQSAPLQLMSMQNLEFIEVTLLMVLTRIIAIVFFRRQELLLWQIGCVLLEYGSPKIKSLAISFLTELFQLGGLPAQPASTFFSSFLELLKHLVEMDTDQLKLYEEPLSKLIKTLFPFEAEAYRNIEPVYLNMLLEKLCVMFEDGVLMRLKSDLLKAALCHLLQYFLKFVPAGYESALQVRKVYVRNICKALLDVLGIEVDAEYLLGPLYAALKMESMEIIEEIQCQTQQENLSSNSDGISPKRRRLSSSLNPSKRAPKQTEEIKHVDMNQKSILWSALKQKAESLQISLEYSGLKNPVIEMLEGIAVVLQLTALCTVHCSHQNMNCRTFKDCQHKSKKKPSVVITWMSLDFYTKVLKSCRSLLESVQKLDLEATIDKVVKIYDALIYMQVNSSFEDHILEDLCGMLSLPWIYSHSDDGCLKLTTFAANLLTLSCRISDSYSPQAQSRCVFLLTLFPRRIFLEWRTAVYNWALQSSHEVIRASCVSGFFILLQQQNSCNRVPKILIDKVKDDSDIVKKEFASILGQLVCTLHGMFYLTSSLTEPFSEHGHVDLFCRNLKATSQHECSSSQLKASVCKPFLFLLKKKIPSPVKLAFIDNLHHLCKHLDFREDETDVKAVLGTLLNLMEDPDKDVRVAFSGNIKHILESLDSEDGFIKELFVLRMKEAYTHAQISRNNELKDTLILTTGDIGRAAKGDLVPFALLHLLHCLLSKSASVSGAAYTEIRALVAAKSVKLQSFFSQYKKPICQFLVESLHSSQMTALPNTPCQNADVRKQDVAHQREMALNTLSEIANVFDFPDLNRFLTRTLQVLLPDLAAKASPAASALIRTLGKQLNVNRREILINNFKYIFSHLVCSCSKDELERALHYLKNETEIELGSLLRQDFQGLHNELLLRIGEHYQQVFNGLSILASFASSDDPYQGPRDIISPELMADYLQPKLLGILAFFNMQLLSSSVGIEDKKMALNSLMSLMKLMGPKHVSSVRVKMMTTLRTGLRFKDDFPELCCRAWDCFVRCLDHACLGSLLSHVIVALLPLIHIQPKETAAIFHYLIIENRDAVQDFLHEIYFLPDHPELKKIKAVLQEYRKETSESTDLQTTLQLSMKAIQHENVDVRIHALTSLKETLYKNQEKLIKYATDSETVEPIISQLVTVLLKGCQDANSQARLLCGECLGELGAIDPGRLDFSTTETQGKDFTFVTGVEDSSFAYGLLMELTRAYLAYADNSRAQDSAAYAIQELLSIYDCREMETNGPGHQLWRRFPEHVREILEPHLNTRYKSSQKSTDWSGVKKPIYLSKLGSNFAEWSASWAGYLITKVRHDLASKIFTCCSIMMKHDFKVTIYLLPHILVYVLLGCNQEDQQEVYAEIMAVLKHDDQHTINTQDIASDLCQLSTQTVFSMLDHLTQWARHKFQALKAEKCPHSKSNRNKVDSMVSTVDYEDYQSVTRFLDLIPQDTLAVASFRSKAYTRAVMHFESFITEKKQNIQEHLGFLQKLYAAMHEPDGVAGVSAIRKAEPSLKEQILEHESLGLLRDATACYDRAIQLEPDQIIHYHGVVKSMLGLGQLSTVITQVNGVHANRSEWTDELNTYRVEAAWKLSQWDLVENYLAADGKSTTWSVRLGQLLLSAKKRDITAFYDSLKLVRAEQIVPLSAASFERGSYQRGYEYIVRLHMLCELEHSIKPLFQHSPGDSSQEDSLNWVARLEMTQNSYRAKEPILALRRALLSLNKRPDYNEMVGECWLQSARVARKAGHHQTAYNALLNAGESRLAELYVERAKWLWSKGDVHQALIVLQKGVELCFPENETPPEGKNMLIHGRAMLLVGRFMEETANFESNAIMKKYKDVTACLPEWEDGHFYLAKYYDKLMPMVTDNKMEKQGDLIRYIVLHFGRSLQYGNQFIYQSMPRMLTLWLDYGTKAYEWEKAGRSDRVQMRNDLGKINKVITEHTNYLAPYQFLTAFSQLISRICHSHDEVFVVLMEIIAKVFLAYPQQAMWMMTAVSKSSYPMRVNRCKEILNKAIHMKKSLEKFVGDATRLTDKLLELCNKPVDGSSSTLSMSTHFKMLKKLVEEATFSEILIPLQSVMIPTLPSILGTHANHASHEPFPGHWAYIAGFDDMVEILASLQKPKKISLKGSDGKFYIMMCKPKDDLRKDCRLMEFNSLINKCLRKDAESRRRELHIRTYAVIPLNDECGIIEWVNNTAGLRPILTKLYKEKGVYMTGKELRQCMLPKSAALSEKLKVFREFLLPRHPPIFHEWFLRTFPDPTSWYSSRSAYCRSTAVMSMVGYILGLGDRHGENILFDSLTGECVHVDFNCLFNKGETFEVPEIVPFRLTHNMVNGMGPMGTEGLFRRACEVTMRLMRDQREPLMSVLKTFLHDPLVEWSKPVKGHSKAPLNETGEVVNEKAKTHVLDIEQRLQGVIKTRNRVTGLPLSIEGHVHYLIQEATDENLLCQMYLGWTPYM

`CC(C)S(=O)(=O)c1ccc(-c2cnc3[nH]cc(C(=O)NC4CCC4)c3n2)cc1` [Compound I-97, N-cyclobutyl-2-(4-isopropylsulfonylphenyl)-5H-pyrrolo[2,3-b]pyrazine-7-carboxamide] was tested, and the Ki (class symbols) was 100 to 500 nM.
In the case of `CC(C)S(=O)(=O)c1ccc(-c2cnc3[nH]cc(C(=O)N4CCCC(N(C)C)C4)c3n2)cc1` (centres unmarked) [Compound I-98, [3-(dimethylamino)-1-piperidyl]-[2-(4-isopropylsulfonylphenyl)-5H-pyrrolo[2,3-b]pyrazin-7-yl]methanone], the Ki [1] is reported as > 4000 nM.
In the case of `CC(C)S(=O)(=O)c1ccc(-c2cnc3[nH]cc(C(=O)N4CCC(N(C)C)CC4)c3n2)cc1` [Compound I-99, [4-(dimethylamino)-1-piperidyl]-[2-(4-isopropylsulfonylphenyl)-5H-pyrrolo[2,3-b]pyrazin-7-yl]methanone], the Ki [1] is reported as > 4000 nM.
For `CC(C)S(=O)(=O)c1ccc(-c2cnc3[nH]cc(C(=O)NOc4ccccc4)c3n2)cc1` [Compound I-100, 2-(4-isopropylsulfonylphenyl)-N-phenoxy-5H-pyrrolo[2,3-b]pyrazine-7-carboxamide], the Ki (class symbols) was < 100 nM.
For `CC(C)S(=O)(=O)c1ccc(-c2cnc3[nH]cc(C(=O)NCC4CCCCC4O)c3n2)cc1` (centres unmarked) [Compound I-101, N-[(2-hydroxycyclohexyl)methyl]-2-(4-isopropylsulfonylphenyl)-5H-pyrrolo[2,3-b]pyrazine-7-carboxamide], the Ki (class symbols) was < 100 nM.
In the case of `Cc1cccc([C@@H](CCO)NC(=O)c2c[nH]c3ncc(-c4ccc(S(=O)(=O)C(C)C)cc4)nc23)c1` [Compound I-102, N-[(1R)-3-hydroxy-1-(m-tolyl)propyl]-2-(4-isopropylsulfonylphenyl)-5H-pyrrolo[2,3-b]pyrazine-7-carboxamide], the Ki (class symbols) is reported as 100 to 500 nM.
`CC(C)S(=O)(=O)c1ccc(-c2cnc3[nH]cc(C(=O)NC4CCS(=O)(=O)C4)c3n2)cc1` (centres unmarked) [Compound I-103, N-(1,1-dioxothiolan-3-yl)-2-(4-isopropylsulfonylphenyl)-5H-pyrrolo[2,3-b]pyrazine-7-carboxamide] was tested, and the Ki (class symbols) was 500 to 5000 nM.
Work on `CC(C)S(=O)(=O)c1ccc(-c2cnc3[nH]cc(C(=O)NC4CCOCC4)c3n2)cc1` [Compound I-104, 2-(4-isopropylsulfonylphenyl)-N-tetrahydropyran-4-yl-5H-pyrrolo[2,3-b]pyrazine-7-carboxamide] yielded a Ki (class symbols) of 500 to 5000 nM.
`CC(C)S(=O)(=O)c1ccc(-c2cnc3[nH]cc(C(=O)NCC4(C)COC4)c3n2)cc1` [Compound I-105, 2-(4-isopropylsulfonylphenyl)-N-[(3-methyloxetan-3-yl)methyl]-5H-pyrrolo[2,3-b]pyrazine-7-carboxamide] gave a Ki (class symbols) of 500 to 5000 nM.
`CC(C)S(=O)(=O)c1ccc(-c2cnc3[nH]cc(C(=O)N[C@@H](C)CO)c3n2)cc1` [Compound I-106, N-[(1S)-2-hydroxy-1-methyl-ethyl]-2-(4-isopropylsulfonylphenyl)-5H-pyrrolo[2,3-b]pyrazine-7-carboxamide] showed a Ki (class symbols) of 100 to 500 nM.
For `CCC(CC)NC(=O)c1c[nH]c2ncc(-c3ccc(S(=O)(=O)C(C)C)cc3)nc12` [Compound I-107, N-(1-ethylpropyl)-2-(4-isopropylsulfonylphenyl)-5H-pyrrolo[2,3-b]pyrazine-7-carboxamide], the Ki (class symbols) was 500 to 5000 nM.
With `CC(C)S(=O)(=O)c1ccc(-c2cnc3[nH]cc(C(=O)NC(c4ccccc4)c4ccccc4)c3n2)cc1` [Compound I-108, N-benzhydryl-2-(4-isopropylsulfonylphenyl)-5H-pyrrolo[2,3-b]pyrazine-7-carboxamide] the Ki (class symbols) was 500 to 5000 nM.
`CC(c1ccccc1F)N(C)C(=O)c1c[nH]c2ncc(-c3ccc(S(=O)(=O)C(C)C)cc3)nc12` (centres unmarked) [Compound I-109, N-[1-(2-fluorophenyl)ethyl]-2-(4-isopropylsulfonylphenyl)-N-methyl-5H-pyrrolo[2,3-b]pyrazine-7-carboxamide] was tested, and the Ki (class symbols) was 500 to 5000 nM.
In the case of `COC[C@H](C)NC(=O)c1c[nH]c2ncc(-c3ccc(S(=O)(=O)C(C)C)cc3)nc12` [Compound I-110, 2-(4-isopropylsulfonylphenyl)-N-[(1S)-2-methoxy-1-methyl-ethyl]-5H-pyrrolo[2,3-b]pyrazine-7-carboxamide], the Ki (class symbols) is reported as 100 to 500 nM.
